Experimental data published in patent publication US9034897B2, “Indanyl-substituted 4,5,6,7-tetrahydro-1H-pyrazolo[4,3-C]pyridines, their use as medicament, and pharmaceutical preparations comprising them” (SANOFI, priority 2011, dated 2015).

What was measured:
[1] = molecular target: Human TASK-1 channels (Homo sapiens (Human), UniProt O14649); assay: Activity on the TASK-1 channel in Xenopus oocytes (two-microelectrode voltage clamp); assay type: cell-based; conditions: for IC50: human TASK-1 expressed in Xenopus oocytes, currents during 500 ms pulses to 40 mV, room temperature; for inhibition at 5 µM: percentage inhibition of TASK-1 control current, Xenopus oocytes
Description: Determination of the activity on the TASK-1 channel in Xenopus oocytes:
Human TASK-1 channels were expressed in Xenopus oocytes. For this purpose, oocytes were isolated from Xenopus laevis and defolliculated. Subsequently, TASK-1-encoding RNA synthesized in vitro was injected into oocytes. After two days of TASK-1 protein expression, TASK-1 currents were measured by two-microelectrode voltage clamp. Data were acquired and analyzed using a TEC-10cx amplifier (NPI Electronic, Tamm, Germany) connected to an ITC-16 interface (Instrutech Corp., Long Island, USA) and Pulse software (HEKA Elektronik, Lambrecht, Germany). Oocytes were clamped to −90 mV and TASK-1 mediated currents were measured during 500 ms voltage pulses to 40 mV. Oocytes were continuously superfused with ND96 buffer containing: NaCl 96 mM, KCl2 mM, CaCl2 1.8 mM, MgCl2 1 mM, HEPES 5 mM (pH adjusted to 7.4 with NaOH). All experiments were performed at room temperature.
Test substances were consecutively added to the bath solution at rising concentrations. Compound effects were calculated as the percentage inhibition of
TASK-1 control current before compound application. IC50 values were obtained by fitting the data to the general dose-response equation.

[2] = tested on: left atrium of the anesthetized pig; assay: Refractory period and left-atrial vulnerability in the anesthetized pig; assay type: in vivo; conditions: bolus 1 mg/kg, n = 2
Description: Investigation of the refractory period and the left-atrial vulnerability in the pig:
The compounds were tested for prolongation of the refractory period and antiarrhythmic activity on the atrium of the anesthetized pig as described in the literature (Knobloch et al. 2002. Naunyn-Schmiedberg's Arch. Pharmacol. 366; 482-487). Here the anti-arrhythmic action relates to the inhibition of the occurrence of episodes of arrhythmias which are induced by a prematurely placed extra-stimulus (S2) in the left atrium (=left-atrial vulnerability). The refractory period values are stated in percent of the basal values 15 minutes after injection. Mean values for the refractory periods are shown from three rates (150, 200 and 250/min). The inhibitory values for the inhibition of episodes of arrhythmias refer to 3 measurements (3 timepoints) before administration vs. 3 measurements during the first hour after administration of the compounds.
The action of 3-[5-Acetyl-1-((1R,2R)-6-chloro-4-fluoro-2-hydroxy-indan-1-yl)-4,5,6,7-tetrahydro-1H-pyrazolo[4,3-c]pyridin-3-yl]-benzonitrile (11j) on the refractory period of the left atrium and antiarrhythmic activity in the anesthetized pig after a bolus administration of 1 mg/kg is shown in table 12. From the results shown in table 12, it is seen that it was possible to prevent 82% of the induced arrhythmias.

Chain of Human TASK-1 channels (O14649 whole entry): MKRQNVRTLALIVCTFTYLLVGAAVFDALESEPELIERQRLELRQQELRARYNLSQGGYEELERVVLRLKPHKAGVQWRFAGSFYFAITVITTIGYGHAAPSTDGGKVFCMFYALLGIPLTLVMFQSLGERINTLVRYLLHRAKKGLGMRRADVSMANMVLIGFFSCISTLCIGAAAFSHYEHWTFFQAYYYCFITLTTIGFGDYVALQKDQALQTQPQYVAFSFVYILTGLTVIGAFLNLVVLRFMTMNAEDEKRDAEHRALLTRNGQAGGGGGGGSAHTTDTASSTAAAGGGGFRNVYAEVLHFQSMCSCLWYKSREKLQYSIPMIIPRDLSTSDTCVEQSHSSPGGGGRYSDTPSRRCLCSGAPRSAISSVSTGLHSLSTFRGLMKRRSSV

| Compound | IC50 [1] [nM] | % inhibition of the arrhythmias ([2]; S2-induced left-atrial arrhythmias, first hour after administration) [%] | % increase in the refractory period ([2]; left atrium, 15 minutes after injection, mean of three rates (150, 200 and 250/min)) [%] | inhibition at 5 µM [1] [%] |
| --- | --- | --- | --- | --- |
| CC(=O)N1CCc2c(c(-c3cccc(C#N)c3)nn2[C@@H]2c3cc(Cl)cc(F)c3C[C@H]2O)C1 [Example 11j, 3-[5-Acetyl-1-((1R,2R)-6-chloro-4-fluoro-2-hydroxy-indan-1-yl)-4,5,6,7-tetrahydro-1H-pyrazolo[4,3-c]pyridin-3-yl]-benzonitrile] | 439 | 82 | 20 | – |
| CSc1cc(F)cc2c1C[C@@H](O)[C@@H]2n1nc(-c2cccc(C#N)c2)c2c1CCN(C(C)=O)C2 [Example 21c, 3-[5-Acetyl-1-((1R,2R)-6-fluoro-2-hydroxy-4-methylsulfanyl-indan-1-yl)-4,5,6,7-tetrahydro-1H-pyrazolo[4,3-c]pyridin-3-yl]-benzonitrile] | – | – | – | 87 |
| CCNC(=O)N1CCc2c(c(-c3cccc(C#N)c3)nn2[C@@H]2c3cc(Cl)cc(Cl)c3C[C@H]2O)C1 [Example 22a, 3-(3-Cyano-phenyl)-1-((1R,2R)-4,6-dichloro-2-hydroxy-indan-1-yl)-1,4,6,7-tetrahydro-pyrazolo[4,3-c]pyridine-5-carboxylic acid ethylamide] | 180 | – | – | – |
| CS(=O)(=O)N1CCc2c(c(-c3cccc(C#N)c3)nn2[C@@H]2c3cc(Cl)cc(Cl)c3C[C@H]2O)C1 [Example 23a, 3-[1-((1R,2R)-4,6-Dichloro-2-hydroxy-indan-1-yl)-5-methanesulfonyl-4,5,6,7-tetrahydro-1H-pyrazolo[4,3-c]pyridin-3-yl]-benzonitrile] | – | – | – | 80 |
